Molecular target: T1, human KDELR1 D50N/N54K/E117Q (Homo sapiens, UniProt P24390, D50N/E117Q/N54K)
T1 construct: expressed in transfected cells; host or cells: COS-7
Assay: ER retrieval assay, KDELR1 D50N/N54K/E117Q-GFP (K. lactis like)
Format: cell-based
Settings: COS-7 cells
Description: To create KDELR1-GFP and KDELR2-GFP, the reading frames for Homo sapiens KDELR1 (Uniprot: P24390) and KDELR2 (Uniprot: P33947) were cloned into the pEF5/FRT low level mammalian expression vector with a C-terminal 20 amino acid linker made up of 5 copies of Gly-Ser-Ser-Ser followed by GFP. Specific point mutations were introduced using the Quickchange protocol (Stratagene) and are described in the key resources table and figures. To create the mScarlet-KDEL^sec ligand construct, mScarlet with an N-terminal hGH signal peptide and the 16 C-terminal residues of human BiP at its C-terminus, containing the KDEL signal, was cloned into the pcDNA3.1 vector. […] The Golgi marker protein TGN46 was detected by antibody (sheep anti-TGN46 AHP500G; AbD Serotec) and an Alexa 647 conjugated secondary anti-sheep secondary (A-21448, Invitrogen). In Figure 1d and e, endogenous KDELR was detected by antibody (mouse anti-KDELR ADI-VAA-PT048; Enzo Life Sciences) and Alexa 488 conjugated anti-mouse secondary antibody (A-21202, Invitrogen). For retrieval assays in other figures, KDELR-GFP fusion proteins were directly detected by fluorescence. The mScarlet-xDEL fusion proteins were directly detected by fluorescence. […] The fraction of KDEL receptor in the Golgi apparatus was calculated by dividing the Golgi signal by the total cell signal. […]

T1 sequence (P24390 whole entry D50N/N54K/E117Q): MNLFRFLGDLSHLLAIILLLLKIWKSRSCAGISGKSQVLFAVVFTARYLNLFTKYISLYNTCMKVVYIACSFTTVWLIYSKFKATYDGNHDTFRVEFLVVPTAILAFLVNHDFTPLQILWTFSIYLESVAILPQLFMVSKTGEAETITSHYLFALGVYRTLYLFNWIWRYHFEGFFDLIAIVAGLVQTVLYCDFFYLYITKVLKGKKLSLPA

Substance: ADEL [pcDNA3.1 hGHss-mScarlet-H. sapiens BiP639-654K651A (ADEL^SEC), secreted mScarlet fusion with human BiP C-terminus, ADEL signal]
- ligand-induced receptor retrieval to the ER (in words): improved the response
